Reference: patent US20050059626A1, “Methods of preventing and treating viral infections using immunomodulatory polynucleotide sequences” (priority 2000, published 2005)

Experiments:
[1] = test system: HSV-1; assay: Viral titer from Vero cells pre-treated with oligonucleotide, HSV-1; format: cell-based, African Green monkey (Vero cells); details: cells infected with HSV-1
Protocol: (§1) Vero cells, a cell line derived from African Green monkey kidney, were pre-treated with varying concentrations of ISS or non-ISS oligonucleotides for varying times prior to the addition of HSV-1 or HSV-2. Oligonucleotides were used at 1 μg/ml or 10 μg/ml and the cells were incubated with the oligonucleotides for 30 seconds, 10 minutes or 24 hours. Viral titers were calculated as a percent of control titer generated by cells not treated with the oligonucleotides. The data are expressed as percent of control titer.

[2] = test system: HSV-2; assay: Viral titer after pre-treating HSV-2 virus with oligonucleotide, Vero cells; format: cell-based, African Green monkey (Vero cells)
Protocol: (§2) HSV-1 or HSV-2 virus was pre-treated with varying concentrations of ISS or non-ISS oligonucleotides for 10 minutes prior to adding the mixture to plated Vero cells. Oligonucleotides were used at 1 μg/ml or 10 μg/ml. Viral titers were calculated as a percent of control titer generated by cells not treated with the oligonucleotides. The data are expressed as percent of control titer.

[3] = test system: HSV-2; assay: Viral titer from Vero cells pre-treated with oligonucleotide, HSV-2; format: cell-based, African Green monkey (Vero cells); details: cells infected with HSV-2
Protocol: as §1

[4] = test system: HSV-1; assay: Viral titer after pre-treating HSV-1 virus with oligonucleotide, Vero cells; format: cell-based, African Green monkey (Vero cells)
Protocol: as §2

[5] = test system: HSV-2 strain MS; assay: Recurrent genital HSV-2 disease in guinea pigs; format: in vivo, Swiss Hartley guinea pigs; details: 3 times/day for 7 days starting 6 hours post inoculation (21 treatments)
[6] = test system: HBV; assay: Chronic HBV model: serum HBV DNA and HBsAg in STC transgenic mice; format: in vivo, STC strain transgenic mice; details: STC mice; ISS 100 μg SC; murine IL-12 100 ng IP days 12, 13, 14
Protocol: ISS activity was tested in an animal model of chronic hepatitis. An ISS-containing phosphorothioate oligonucleotide (5′-[…]-3′) (SEQ ID NO:1), was delivered to STC strain transgenic mice, followed by measurement of HBV DNA and HBsAg production.
STC line mice were developed at Stanford University by Patricia Marion. The majority of these mice secrete HBV of the Ayw genotype (Galibert et al. (1979) Nature 281:646) to titers of 10^6-8 viral genome equivalents per ml of serum. STC mice were derived from the FVB strain, and were constructed by microinjection of HBV genomic DNA.
Approximately one month old mice were bled and tested for serum levels of HBsAg, which is predictive of viral DNA titer. A pool of 40 STC mice with approximately equal levels of HBsAg were selected and randomly assigned to four treatment groups of 10 animals each. The groups were treated as follows: • 1. 100 μg of ISS injected subcutaneously, once per week for 3 weeks (days 0, 7, 14) • 2. 100 μg of ISS injected subcutaneously, one injection at day 14 • 3. 100 ng of murine 1L-12 injected intraperitoneally on days 12, 13, and 14. • 4. PBS injected subcutaneously (days 0, 7, 14)
Blood samples were taken at day 0, 7, 14, 15 (22 hr after last IL-12 injection), 18, 28 and 35. Serum prepared from the blood samples was tested for HBV DNA by quantitative PCR (testing performed under contract by Hepadnavirus Testing, Inc.), and HBsAg using a commercially available EIA kit for HBsAg from Abbott Laboratories. Animals were sacrificed at day 35 and livers were collected for histologic analysis.

[7] = cells pre-treated 1 μg/ml, 30 sec
[8] = cells pre-treated 1 μg/ml, 10 min
[9] = cells pre-treated 1 μg/ml, 24 hr
[10] = cells pre-treated 10 μg/ml, 30 sec
[11] = cells pre-treated 10 μg/ml, 10 min
[12] = cells pre-treated 10 μg/ml, 24 hr
[13] = HSV-2 virus pre-treated 10 minutes with 1 μg/ml
[14] = HSV-2 virus pre-treated 10 minutes with 10 μg/ml
[15] = HSV-1 virus pre-treated 10 minutes with 1 μg/ml
[16] = HSV-1 virus pre-treated 10 minutes with 10 μg/ml

Molecule | Viral titer, percent of control titer [1, 7] | Viral titer, percent of control titer [1, 8] | Viral titer, percent of control titer [1, 9] | Viral titer, percent of control titer [1, 10] | Viral titer, percent of control titer [1, 11] | Viral titer, percent of control titer [1, 12] | Viral titer, percent of control titer [2, 13] | Viral titer, percent of control titer [2, 14] | Viral titer, percent of control titer [3, 7] | Viral titer, percent of control titer [3, 10] | Viral titer, percent of control titer [4, 15] | Viral titer, percent of control titer [4, 16] | Viral titer, percent of control titer [3, 8] | Viral titer, percent of control titer [3, 9] | Viral titer, percent of control titer [3, 11] | Viral titer, percent of control titer [3, 12] | Cumulative recurrent mean lesion days [5] | Effect on serum HBV DNA viral titer [6]
5′-TCGTCGAACGTTCGTTAACGTTCG-3′ (listed as DNA, chemistry not given here) [SEQ ID NO: 11, ISS oligonucleotide] | 129% of control titer | 95% of control titer | 87% of control titer | 122% of control titer | 96% of control titer | 78% of control titer | 101% of control titer | 97% of control titer | 119% of control titer | 136% of control titer | 100% of control titer | 100% of control titer |  |  |  |  |  | 
5′-TGACTGTGAAGGTTAGAGATGA-3′ (chemistry not given here) [SEQ ID NO: 9, reference compound] | 100% of control titer | 99% of control titer | 101% of control titer | 96% of control titer | 100% of control titer | 97% of control titer | 98% of control titer | 106% of control titer | 98% of control titer | 103% of control titer | 102% of control titer | 103% of control titer | 96% of control titer | 103% of control titer | 97% of control titer | 99% of control titer |  | 
Nc1nc2c(ncn2COCCO)c(=O)[nH]1 [Acyclovir, reference compound] |  |  |  |  |  |  |  |  |  |  |  |  |  |  |  |  | significant reduction in cumulative recurrent mean lesion days | 
5′-TGACTGTGAACCTTAGAGATGA-3′ (chemistry not given here) [SEQ ID NO: 12, non-ISS control oligonucleotide, reference compound] | 132% of control titer | 98% of control titer | 97% of control titer | 141% of control titer | 100% of control titer | 94% of control titer | 100% of control titer | 97% of control titer | 111% of control titer | 129% of control titer | 98% of control titer | 101% of control titer |  |  | 100% of control titer | 98% of control titer |  | 
murine IL-12: murine IL-12, 100 ng injected intraperitoneally as comparator in STC mice (protein, UniProt P43431 23-215; P43432 23-335, looked up) Interleukin-12 subunit alpha: RVIPVSGPARCLSQSRNLLKTTDDMVKTAREKLKHYSCTAEDIDHEDITRDQTSTLKTCLPLELHKNESCLATRETSSTTRGSCLPPQKTSLMMTLCLGSIYEDLKMYQTEFQAINAALQNHNHQQIILDKGMLVAIDELMQSLNHNGETLRQKPPVGEADPYRVKMKLCILLHAFSTRVVTINRVMGYLSSA Interleukin-12 subunit beta: MWELEKDVYVVEVDWTPDAPGETVNLTCDTPEEDDITWTSDQRHGVIGSGKTLTITVKEFLDAGQYTCHKGGETLSHSHLLLHKKENGIWSTEILKNFKNKTFLKCEAPNYSGRFTCSWLVQRNMDLKFNIKSSSSSPDSRAVTCGMASLSAEKVTLDQRDYEKYSVSCQEDVTCPTAEETLPIELALEARQQNKYENYSTSFFIRDIIKPDPPKNLQMKPLKNSQVEVSWEYPDSWSTPHSYFSLKFFVRIQRKKEKMKETEEGCNQKGAFLVEKTSTEVQCKGGNVCVQAQDRYYNSSCSKWACVPCRVRS |  |  |  |  |  |  |  |  |  |  |  |  |  |  |  |  |  | effective in reducing viral titer
